In PubChem BioAssay (NCI) one finds TGI and GI50 data, which are given here for 20 molecules.

Several values for one entry are separate records, joined by “and”; a condition that tells them apart may be missing. Equal values may be shown once.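 Interpolation was linear, between the two tested concentrations surrounding the appropriate level; five concentrations were tested over 48 hours in 96-well plates. GI50 marks 50% less growth. The concentration for full growth arrest is given as TGI.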 Where a SMILES comes first, the peptide text is derived from it. [ ]: non-standard residue; d: D form. The star is where a group is joined. Phe(4-NO2) = N[CH](Cc1ccc([N+](=O)[O-])cc1)C(=O)O; Boc = CC(C)(C)OC(=O)* Some results are limits rather than exact numbers.

Some test systems named below: A498 renal; CCRF-CEM leukemia; HCT-15 colon; MCF7 breast; MOLT-4 leukemia; OVCAR-3 ovarian; SF-268 CNS; SK-OV-3 ovarian; SR leukemia; U251 CNS.
Holding throughout (test): NCI anticancer screen, dose series, 48 h

For `CC(=O)OCC1OC(SC2=NC(=O)CS2)C(OC(C)=O)C(OC(C)=O)C1OC(C)=O` (stereo not drawn), the TGI with A498 renal, in the experiment on CCRF-CEM leukemia, with HCT-15 colon, in the experiment on MCF7 breast, in the experiment with MOLT-4 leukemia and in the experiment on OVCAR-3 ovarian was more than 100 µM in each case. The TGI in the experiment with SF-268 CNS, in the experiment with SK-OV-3 ovarian and in the experiment on SR leukemia was more than 100 µM throughout. Moreover, in the experiment with HCT-15 colon, the GI50 is 26.3 µM and 53 µM.
With `Cc1cn(C2CC(COCc3ccccc3)N(CCO[Si](C)(C)C(C)(C)C)O2)c(=O)[nH]c1=O` (stereo not drawn), the TGI in the experiment on A498 renal turned out to be 36.8 µM; in the experiment with MCF7 breast, 33 µM; with MOLT-4 leukemia, 32.3 µM; with OVCAR-3 ovarian, 28.4 µM; in the experiment with SF-268 CNS, 35.7 µM; with SK-OV-3 ovarian it was 31.4 µM. Besides, the TGI was 71.4 µM in the experiment with SR leukemia and 62.5 µM in the experiment on U251 CNS.
In the case of `CCOC(=O)CCC(NC(=O)C(Cc1ccc([N+](=O)[O-])cc1)NC(=O)OC(C)(C)C)C(=O)NC(CCC(=O)OCC)C(=O)OCC` (stereo not drawn) (Boc-[Phe(4-NO2)]-Glu(OEt)-Glu(OEt)-OEt; configuration not given here), the TGI in the experiment with A498 renal is 36.4 µM; in the experiment on HCT-15 colon it was more than 100 µM; in the experiment with MCF7 breast, more than 100 µM; in the experiment with MOLT-4 leukemia, 6.62 µM; in the experiment on SR leukemia it was 9.38 µM; in the experiment on U251 CNS it was 44.6 µM.
`COc1cc(S(=O)(=O)Nc2ccc(-c3csc(N4C(=O)C(Cl)C4c4ccccc4O)n3)cc2)ccc1Cl` (stereo not drawn): the TGI was 0.948 µM in the experiment with A498 renal; 9.13 µM with CCRF-CEM leukemia; more than 100 µM with HCT-15 colon; 54.2 µM in the experiment on MCF7 breast; 41.7 µM in the experiment with MOLT-4 leukemia; more than 100 µM with OVCAR-3 ovarian. The values for the TGI in the experiment with SF-268 CNS, in the experiment on SK-OV-3 ovarian and with SR leukemia were more than 100 µM, more than 100 µM and 52 µM, respectively.
As for `N/N=C(/N)SCCCCCCCCCCS/C(N)=N/N`, the TGI is 43.8 µM in the experiment on A498 renal; more than 100 µM with CCRF-CEM leukemia; 27.5 µM in the experiment with HCT-15 colon; 64.4 µM in the experiment with MCF7 breast; 91.1 µM with OVCAR-3 ovarian; more than 100 µM with SF-268 CNS. Besides, the results for the TGI in the experiment on SR leukemia and in the experiment with U251 CNS were 27.4 µM and 51.4 µM, respectively.
As to `O=c1c2ccccc2nc(N/N=C/c2ccc([N+](=O)[O-])cc2)n1-c1ccccc1`, the TGI was more than 100 µM in the experiment on CCRF-CEM leukemia; more than 100 µM with HCT-15 colon; more than 100 µM in the experiment with MCF7 breast; more than 100 µM in the experiment with MOLT-4 leukemia; more than 100 µM in the experiment on OVCAR-3 ovarian; 59.3 µM in the experiment with SF-268 CNS. In addition, the TGI was 64.8 µM with SK-OV-3 ovarian, more than 100 µM in the experiment with SR leukemia and 48.4 µM in the experiment with U251 CNS.
Regarding `Cc1c(OCc2cccc3ccccc23)ccc2c(=O)cc(SCCN3CCOCC3)oc12`, the TGI in the experiment with A498 renal, with CCRF-CEM leukemia, in the experiment on HCT-15 colon, with MCF7 breast, in the experiment on MOLT-4 leukemia and with OVCAR-3 ovarian was more than 100 µM throughout. Besides, the TGI in the experiment with SF-268 CNS, with SR leukemia and with U251 CNS was more than 100 µM in each case.
Consider `C/C(=C\Cc1ccc(F)cc1)CCCCCC/C(C)=C/Cc1ccc(F)cc1`, for which the TGI came to 42.6 µM in the experiment with CCRF-CEM leukemia; 34.1 µM in the experiment with HCT-15 colon; 45.8 µM in the experiment on MCF7 breast; 47.6 µM in the experiment with MOLT-4 leukemia; 53.8 µM with OVCAR-3 ovarian; 37.2 µM in the experiment on SF-268 CNS. The TGI came to 68.6 µM in the experiment on SK-OV-3 ovarian, 57.2 µM in the experiment with SR leukemia and 37.8 µM with U251 CNS.
On to `c1cc2cc3c4c5c(cc6ccc7cc8cc9c%10c8c8c7c6c5c8c5c%10c(c1C9N1CCOCCOCCOCCOCCOCC1)c2c45)C3` (stereo not drawn), for which the TGI in the experiment on CCRF-CEM leukemia, with HCT-15 colon, in the experiment on MCF7 breast, in the experiment with MOLT-4 leukemia, with OVCAR-3 ovarian and in the experiment on SF-268 CNS was more than 100 µM in each case. The TGI with SK-OV-3 ovarian, with SR leukemia and in the experiment with U251 CNS was more than 100 µM throughout.
Take `Clc1ccc(-c2nn3c(COc4cccc(OCc5nnc6sc(-c7ccc(Cl)cc7)nn56)c4)nnc3s2)cc1`: the TGI with A498 renal is 61.8 µM; in the experiment on HCT-15 colon it was more than 100 µM; in the experiment with MCF7 breast, 27.2 µM; in the experiment on MOLT-4 leukemia it was 74.6 µM; with OVCAR-3 ovarian, 44 µM; in the experiment on SF-268 CNS, more than 100 µM. Moreover, the TGI was more than 100 µM in the experiment with SK-OV-3 ovarian, 88.9 µM with SR leukemia and 61.3 µM with U251 CNS.
On to `COC(=O)/C=C\n1nc(Br)c(=O)[nH]c1=O`, for which the TGI in the experiment with A498 renal, in the experiment on CCRF-CEM leukemia, in the experiment on HCT-15 colon, in the experiment on MCF7 breast, with OVCAR-3 ovarian and in the experiment with SF-268 CNS was more than 100 µM each time. The TGI in the experiment on SR leukemia and in the experiment with U251 CNS was more than 100 µM throughout.
In the case of `COc1c(C)c(C/C=C(\C)CCCC(C)CCCC(C)CCCC(C)C)c(OC)c2ccccc12` (stereo not drawn), the TGI in the experiment with CCRF-CEM leukemia, with HCT-15 colon, in the experiment on MCF7 breast, in the experiment on MOLT-4 leukemia, in the experiment with OVCAR-3 ovarian and in the experiment on SF-268 CNS was more than 100 µM in each case. The TGI in the experiment with SK-OV-3 ovarian, with SR leukemia and in the experiment with U251 CNS was more than 100 µM in each case.
With `COc1cc2c3c(n(C)c(=O)c2cc1OC)-c1cc2c(cc1/C3=C\CCCCCBr)OCO2`, the TGI in the experiment with A498 renal is 46 µM; in the experiment with CCRF-CEM leukemia, 38.3 µM; in the experiment with HCT-15 colon, more than 100 µM; with MCF7 breast it was more than 100 µM; with MOLT-4 leukemia, 10.5 µM; with SF-268 CNS, more than 100 µM. Also, the TGI was found to be 79.3 µM in the experiment on SK-OV-3 ovarian, 14.1 µM in the experiment on SR leukemia and 24.1 µM with U251 CNS.
Consider `Cc1cc(N2CCCCC2)nc2ccc(Cc3ccc4nc(N5CCCCC5)cc(C)c4c3)cc12`, for which the TGI in the experiment with A498 renal, in the experiment on HCT-15 colon, with MCF7 breast, in the experiment with MOLT-4 leukemia, with OVCAR-3 ovarian and with SF-268 CNS was more than 100 µM in each case. For the same molecule, the TGI in the experiment with SK-OV-3 ovarian, in the experiment on SR leukemia and in the experiment with U251 CNS was more than 100 µM in each case.
Regarding `COc1ccc(/C=c2\[nH]c3nc(=O)c(N4CCCCC4)c(N)n3c2=O)cc1`, the TGI with A498 renal, in the experiment with CCRF-CEM leukemia, in the experiment with HCT-15 colon, with MCF7 breast, in the experiment with MOLT-4 leukemia and in the experiment on SF-268 CNS was more than 100 µM throughout. Further, the TGI in the experiment on SK-OV-3 ovarian, with SR leukemia and in the experiment with U251 CNS was more than 100 µM in each case.
On to `O=c1[nH]n(CCc2ccccc2CCl)c2ccc([N+](=O)[O-])cc12`, for which the TGI in the experiment on A498 renal, in the experiment on CCRF-CEM leukemia, with HCT-15 colon, with MCF7 breast, in the experiment with MOLT-4 leukemia and with OVCAR-3 ovarian was more than 100 µM in each case. Besides, the TGI in the experiment with SF-268 CNS, in the experiment with SR leukemia and in the experiment with U251 CNS was more than 100 µM each time.
As to `O=C(Nc1ccc(-n2cc(-c3ccncc3)c(-c3ccc(O)c(Cl)c3)n2)cc1)c1ccc(Cl)c(C(F)(F)F)c1`, the GI50 is 41.7 µM in the experiment on A498 renal; 275 nM with CCRF-CEM leukemia; 1.21 µM in the experiment on HCT-15 colon; 2400 nM in the experiment with MCF7 breast; 1690 nM in the experiment with MOLT-4 leukemia; 1630 nM with OVCAR-3 ovarian. For the same molecule, the GI50 in the experiment with SF-268 CNS was 2790 nM; with SR leukemia, 1680 nM; in the experiment with U251 CNS, 867 nM. Besides, the TGI in the experiment with A498 renal was more than 50 µM; in the experiment on CCRF-CEM leukemia, more than 50 µM; with HCT-15 colon, 4.39 µM; with MCF7 breast, more than 50 µM; in the experiment with MOLT-4 leukemia, 34.2 µM; in the experiment with OVCAR-3 ovarian, 7.33 µM. The TGI in the experiment with SF-268 CNS was more than 50 µM; in the experiment with SR leukemia, 13 µM; with U251 CNS it was 6.76 µM.
`COC(=O)C1C(=O)CC(C)(O)C(C(=O)OC)C1c1ccc(N(C)C)cc1` (stereo not drawn): the TGI with A498 renal, in the experiment on CCRF-CEM leukemia, in the experiment on HCT-15 colon, in the experiment on MCF7 breast, in the experiment with MOLT-4 leukemia and with OVCAR-3 ovarian was more than 100 µM throughout. For the same molecule, the TGI in the experiment on SF-268 CNS, in the experiment on SR leukemia and with U251 CNS was more than 100 µM in each case.
As for `COc1cccc(C(C#N)NNC(=O)c2c(Cl)c(Cl)c(Cl)c(Cl)c2-c2nc3ccc(C(=O)c4ccccc4)cc3[nH]2)c1O` (stereo not drawn), the TGI with A498 renal was 7.29 µM; with CCRF-CEM leukemia, more than 100 µM; in the experiment on HCT-15 colon, more than 100 µM; with MCF7 breast, more than 100 µM; in the experiment with MOLT-4 leukemia it was more than 100 µM; in the experiment with SK-OV-3 ovarian it was more than 100 µM. For the same molecule, the TGI in the experiment with SR leukemia and with U251 CNS was more than 100 µM each time.
Consider `Cc1nc2ccc(Br)cc2c(=O)n1-c1ccc(N)cc1`, for which the TGI with A498 renal, with CCRF-CEM leukemia, in the experiment with HCT-15 colon, with MCF7 breast, in the experiment on MOLT-4 leukemia and in the experiment on OVCAR-3 ovarian was more than 100 µM in each case. In addition, the TGI with SF-268 CNS, in the experiment on SK-OV-3 ovarian and in the experiment with SR leukemia was more than 100 µM each time.
